Results reported in patent US20240398819A1 (Rhode Island Hospital, priority 2023, published 2024).

How the values were obtained:
[1] = system: fibrocytes from explanted human anterior cruciate ligament (ACL) specimens; experiment: Effects of relaxin-2 antagonist / receptor antagonist on cultured ACL cells from patients with ACL reconstruction (RT-PCR); type: cell-based; details: Folic Acid 10 μg/ml, NADH 100 μg/ml
Protocol: Measurements of expressions of MMP13, collagen 1A, collagen 3A, MMP3, and MMP1 in patient ACL tissues were conducted (FIG. 5). Biopsy tissues of the ACL from 20 patients (10 male and 10 female) who underwent surgeries for ACL reconstruction were harvested. The patients' ages ranged from 16 to 61 years, with equal numbers of males and females. The protocol for patient enrollment was approved by the IRB committee at our institution. […] After treatment, cells were lysed and analyzed for the expressions of type I collagen, type III collagen, MMP1, MMP3, and MMP13 using quantitative real-time polymerase chain reaction (RT-PCR). MMP13 expression (FIG. 5A); collagen 1A expression (FIG. 5B); collagen 3A expression (FIG. 5C); MMP3 expression (FIG. 5D); and MMP1 expression (FIG. 5E), all present the innovation. The protocol for patient enrollment was approved by the IRB committee at Rhode Island Hospital. GraphPad PRISM 8 software was used to perform all statistical analyses. Results were presented as mean+standard error of the mean (SEM) of different samples and considered significant when p<0.05. A t-test was used to compare any two groups, *p<0.05, **p<0.01, ***p<0.001 compared to their individual control group; ##p<0.01, compared to their individual relaxin-2 group.
Measurements of expressions of MMP13, collagen 1A, collagen 3A, MMP3, and MMP1 in patient ACL tissues were conducted (FIG. 5). Biopsy tissues of the ACL from 20 patients (10 male and 10 female) who underwent surgeries for ACL reconstruction were harvested. The patients' ages ranged from 16 to 61 years, with equal numbers of males and females. The protocol for patient enrollment was approved by the TRB committee at our institution.
After treatment, cells were lysed and analyzed for the expressions of type I collagen, type III collagen, MMP1, MMP3, and MMP13 using quantitative real-time polymerase chain reaction (RT-PCR). FIG. 5 provides expressions of MMP13, collagen 1A, collagen 3A, MMP3, and MMP1 in patient ACL tissues. (FIG. 5A) MMP13 expression; (FIG. 5B) collagen 1A expression; (FIG. 5C) collagen 3A expression; (FIG. 5D) MMP3 expression; (FIG. 5E) MMP1 expression. In FIG. 5, the protocol for patient enrollment was approved by the IRB committee at Rhode Island Hospital. GraphPad PRISM 8 software was used to perform all statistical analyses. Results were presented as mean+standard error of the mean (SEM) of different samples, and considered significant when p<0.05. A t-test was used to compare any two groups, *p<0.05, **p<0.01, ***p<0.001 compared to their individual control group; ##p<0.01, compared to their individual relaxin-2 group.

patient ACL cells [2] = experiment: MMP gene expression (quantitative real-time RT-PCR) in cultured patient ACL cells treated with relaxin-2; type: cell-based, human
Protocol: Methods: Biopsy tissues of the ACL in the knee were collected from 20 patients with ACL reconstruction (ages ranging from 16 years to 61 years old, 10 males and 10 females). The normal ACLs were obtained from the rejected human knee osteochondral grafts from the Musculoskeletal Transplant Foundation (MTF) or the donors from MedCure (ages ranging from 24 years to 84 years old, 4 male and 4 females) were used as control samples. Immunohistochemistry was performed to detect the expression of RXFP2 and apoptosis. The number of RXFP2 positive and apoptotic positive cells were counted from six different fields for each patient. ACL cells were cultured in vitro, then cells were treated with relaxin-2 at different concentrations. After treatment, cells were lysed and analyzed for the expressions of MMP1 and MMP13 using quantitative real-time polymerase chain reaction. The protocol for patient enrollment was approved by the IRB committee at Rhode Island Hospital. GraphPad PRISM 8 software was used to perform all statistical analyses. Results were presented as mean±standard error of the mean (SEM) of different samples. Data were examined by one-way analysis of variance (ANOVA) with Tukey post-hoc multiple comparison. An unpaired t-test was used to compare any two groups. A value of p<0.05 was considered to be statically significant.
Patient ACL tissues were minced and digested with 1.0 mg/mL of type II collagenase at 37° C. at 5% CO2 in 2 mL Dulbecco's modified Eagle medium F12 (DMEM/F12, Gibco) containing 1% antibiotic-antimycotic (Gibco) for 12 hours. ACL cells were then filtered through a […] nylon mesh filter and collected by centrifugation. ACL cells were plated at a density of 1×10^5 cells/cm^2 in DMEM/F12 media supplemented with 10% fetal bovine serum (FBS, Gibco) and 1% antibiotic-antimycotic in 20 cm petri dishes for passage one. The media was changed twice a week. […]
RNA was isolated using TRIzol reagent and RNeasy Mini Kit from cultured ACL cells. RNA concentrations and purity were evaluated using a Nanodrop spectrophotometer (Thermo Scientific, Wilmington, DE, USA). A total of 1 μg of sample RNA was reverse transcribed using the Quantitect RT Kit (Qiagen, cDNA was synthesized from RNA using the iScript cDNA synthesis kit (Bio-Rad). RNA concentrations and purity were evaluated using a Nanodrop spectrophotometer (Thermo Scientific, Wilmington, DE, USA). Exactly 500 ng DNA was used as the template for real-time PCR analyses. Quantitative PCR reactions were performed using SYBR Green Fast Mix in a Bio-Rad real-time PCR machine. All Taqman primer and probe mixes were from Thermo Fisher Scientific (Waltham, MA, USA). Changes in the gene expressions of MMP1 and MMP13 were measured, which were normalized to GAPDH.

patient ACL cells [3] = experiment: cAMP level (ELISA) in patient ACL cells after relaxin-2 treatment; type: cell-based, human; details: male and female ACL cells
Protocol: The detection of cAMP in samples was conducted using Abcam's cAMP Complete in vitro competitive Enzyme-Linked Immunosorbent Assay (ELISA) kit. Patient samples were first thawed from −80° C. and added to a 10% protease inhibitor in RIPA buffer (Thermo Scientific) solution for cell lysis. Each sample was then pipetted up and down 10 times with a syringe every 10 minutes over the course of 30 minutes. Next, the samples were centrifuged at 14,000 RPM for 5 minutes. The supernatant was then extracted from the pellet and stored at −80° C.
Following cell lysis and supernatant extraction, the total protein concentration of the samples was determined using a BCA protein assay. Albumin standards were prepared with the RIPA buffer and protease inhibitor. […] Standards and samples were then loaded in a 96 well plate with BCA reagent and was read in a plate reader at 570 nm to determine overall protein concentrations in samples. The concentrations of cAMP were determined using Abcam's ELISA kit. […] Stop solutions were added, and the plate was read at 405 nm with correction between 570 nm and 590 nm to determine cAMP concentrations. cAMP concentrations in pmol/mg were calculated by dividing the cAMP concentrations in pmol/mL by the total protein concentrations from the BCA protein assay in mg/mL.

[4] = 48 hour intravenous infusion, 30 μg/kg/day; compared with placebo group; cited from earlier work
ACL cells = experiment: Vitamin D effects on type I collagen and MMP13 gene expression in cultured ACL cells from patients (RT-PCR); type: cell-based, human; details: 3 days; for Type I collagen expression: vitamin D 1, 10 and 100 nmol/L
Protocol: Biopsy tissues of the ACL in the knee were collected from 20 patients with ACL reconstruction (ages ranging from 16 years to 61 years old, 10 males and 10 females). The ACL cells were cultured in vitro and treated with vitamin D at different concentrations for 3 days. Cells were then lysed and analyzed for expressions of type I collagen and MMP13 genes using quantitative real-time polymerase chain reaction. The protocol for patient enrollment was approved by the IRB committee at Rhode Island Hospital. GraphPad PRISM 8 software was used to perform all statistical analyses. Results were presented as mean±standard error of the mean (SEM) of different samples and considered significant when p<0.05. A t-test was used to compare any two groups. See Appendix II for data and further discussion.

[5] = male ACL cells, relaxin-2 treatments vs control groups

In the case of `Nc1nc2ncc(CNc3ccc(C(=O)N[C@@H](CCC(=O)O)C(=O)O)cc3)nc2c(=O)[nH]1` [Folic acid], the MMP-13 expression [1] is reported as “significant decrease”, the “collagen 1A expression” value [1] is reported as “significant increases” and the “collagen 3A expression” value [1] is reported as “significant increases”.
In the case of `NC(=O)C1=CN([C@@H]2O[C@H](COP(=O)(O)OP(=O)(O)OC[C@H]3O[C@@H](n4cnc5c(N)ncnc54)[C@H](O)[C@@H]3O)[C@@H](O)[C@H]2O)C=CC1` [NADH, nicotinamide adenine dinucleotide hydride], the MMP-13 expression [1] is reported as “significant decrease”, the “collagen 1A expression” value [1] is reported as “significant increases” and the “collagen 3A expression” value [1] is reported as “significant increases”.
With relaxin-2 the MMP13 expression (patient ACL cells [2]; female ACL cells, 10 ng/mL of relaxin-2, vs untreated controls) was “increased”, the MMP1 expression (patient ACL cells [2]; female ACL cells, 100 ng/mL of relaxin-2, vs untreated controls) was “increased” and the MMP1 expression (patient ACL cells [2]; [5]) was “didn't significant change”. For the same compound, the MMP3 expression (patient ACL cells [2]; [5]) was “didn't significant change” and the cAMP levels (patient ACL cells [3]) was “couldn't change”.
In the case of serelaxin, the 180-day mortality [4] is listed as “improvement” and the short-term dyspnea scores [4] is listed as “improvement”.
In the case of vitamin D, the MMP13 gene expression (ACL cells; female cells, vitamin D 1 nmol/L) is reported as “increased”, the MMP13 gene expression (ACL cells; female cells, vitamin D 10 nmol/L) is reported as “reduced” and the “Type I collagen expression” value (ACL cells; female cells) is reported as “increased”. The MMP13 gene expression (ACL cells; male cells, vitamin D 1 nmol/L) was “increased”, the MMP13 gene expression (ACL cells; male cells, vitamin D 100 nmol/L) was “reduced” and the “Type I collagen expression” value (ACL cells; male cells) was “not observed”.
